In ChEMBL document CHEMBL3044763, “Inhibitory Activities of Rhodanine Derivatives on Plant Growth” (Biosci Biotechnol Biochem, 1996):

Legend:
[1] = Toxicity in Mus musculus ddY (mouse) assessed as mortality at 275 mg/kg, ip after 5 days; type: organism-based; design: dose 275 mg/kg, route intraperitoneal; details: in vivo
[2] = Toxicity in Mus musculus ddY (mouse) assessed as mortality at 400 mg/kg, ip after 4 days; type: organism-based; design: dose 400 mg/kg, route intraperitoneal; details: in vivo
[3] = Toxicity in Mus musculus ddY (mouse) assessed as mortality at 300 mg/kg, ip after 4 days; type: organism-based; design: dose 300 mg/kg, route intraperitoneal; details: in vivo
[4] = tested on: Brassica rapa subsp. oleifera; experiment: Growth inhibition of Brassica rapa subsp. oleifera assessed as total chlorophyll level at 5 x 10^-5 M after 7 days; type: functional; design: scale not given: the % may be the effect or the level left
[5] = tested on: Brassica rapa subsp. oleifera; experiment: Growth inhibition of Brassica rapa subsp. oleifera assessed as root growth at 3 x 10^-5 M after 7 days; type: functional
[6] = tested on: Brassica rapa subsp. oleifera; experiment: Growth inhibition of Brassica rapa subsp. oleifera assessed as root growth at 1 x 10^-4 M after 7 days; type: functional
[7] = Toxicity in Mus musculus ddY (mouse) assessed as mortality at 350 mg/kg, ip after 4 days; type: organism-based; design: dose 350 mg/kg, route intraperitoneal; details: in vivo
[8] = tested on: Brassica rapa subsp. oleifera; experiment: Growth inhibition of Brassica rapa subsp. oleifera assessed as chlorophyll a level at 1 x 10^-4 M after 7 days; type: functional; design: scale not given: the % may be the effect or the level left
[9] = Toxicity in Mus musculus ddY (mouse) assessed as mortality at 375 mg/kg, ip after 3 days; type: organism-based; design: dose 375 mg/kg, route intraperitoneal; details: in vivo
[10] = Toxicity in Mus musculus ddY (mouse) assessed as mortality at 300 mg/kg, ip after 2 days; type: organism-based; design: dose 300 mg/kg, route intraperitoneal; details: in vivo
[11] = Toxicity in Mus musculus ddY (mouse) assessed as mortality at 325 mg/kg, ip after 1 day; type: organism-based; design: dose 325 mg/kg, route intraperitoneal; details: in vivo
[12] = Toxicity in Mus musculus ddY (mouse) assessed as mortality at 275 mg/kg, ip after 4 days; type: organism-based; design: dose 275 mg/kg, route intraperitoneal; details: in vivo
[13] = Toxicity in Mus musculus ddY (mouse) assessed as mortality at 350 mg/kg, ip after 3 days; type: organism-based; design: dose 350 mg/kg, route intraperitoneal; details: in vivo
[14] = Toxicity in Mus musculus ddY (mouse) assessed as mortality at 325 mg/kg, ip after 6 days; type: organism-based; design: dose 325 mg/kg, route intraperitoneal; details: in vivo
[15] = Toxicity in Mus musculus ddY (mouse) assessed as mortality at 275 mg/kg, ip after 2 days; type: organism-based; design: dose 275 mg/kg, route intraperitoneal; details: in vivo
[16] = tested on: Brassica rapa subsp. oleifera; experiment: Growth inhibition of Brassica rapa subsp. oleifera assessed as chlorophyll a level at 3 x 10^-5 M after 7 days; type: functional; design: scale not given: the % may be the effect or the level left
[17] = tested on: Brassica rapa subsp. oleifera; experiment: Growth inhibition of Brassica rapa subsp. oleifera assessed as total chlorophyll level at 3 x 10^-5 M after 7 days; type: functional; design: scale not given: the % may be the effect or the level left
[18] = tested on: Brassica rapa subsp. oleifera; experiment: Growth inhibition of Brassica rapa subsp. oleifera assessed as total chlorophyll level at 3 x 10^-4 M after 7 days; type: functional; design: scale not given: the % may be the effect or the level left
[19] = Toxicity in Mus musculus ddY (mouse) assessed as mortality at 300 mg/kg, ip after 1 day; type: organism-based; design: dose 300 mg/kg, route intraperitoneal; details: in vivo
[20] = Toxicity in Mus musculus ddY (mouse) assessed as mortality at 325 mg/kg, ip after 2 days; type: organism-based; design: dose 325 mg/kg, route intraperitoneal; details: in vivo
[21] = tested on: Brassica rapa subsp. oleifera; experiment: Growth inhibition of Brassica rapa subsp. oleifera assessed as chlorophyll a level at 5 x 10^-5 M after 7 days; type: functional; design: scale not given: the % may be the effect or the level left
[22] = Toxicity in Mus musculus ddY (mouse) assessed as mortality at 400 mg/kg, ip after 2 days; type: organism-based; design: dose 400 mg/kg, route intraperitoneal; details: in vivo
[23] = Toxicity in Mus musculus ddY (mouse) assessed as mortality at 375 mg/kg, ip after 4 days; type: organism-based; design: dose 375 mg/kg, route intraperitoneal; details: in vivo
[24] = Toxicity in Mus musculus ddY (mouse) assessed as mortality at 400 mg/kg, ip after 1 day; type: organism-based; design: dose 400 mg/kg, route intraperitoneal; details: in vivo
[25] = Toxicity in Mus musculus ddY (mouse) assessed as mortality at 325 mg/kg, ip after 5 days; type: organism-based; design: dose 325 mg/kg, route intraperitoneal; details: in vivo
[26] = Toxicity in Mus musculus ddY (mouse) assessed as mortality at 300 mg/kg, ip after 6 days; type: organism-based; design: dose 300 mg/kg, route intraperitoneal; details: in vivo
[27] = Toxicity in Mus musculus ddY (mouse) assessed as mortality at 350 mg/kg, ip after 1 day; type: organism-based; design: dose 350 mg/kg, route intraperitoneal; details: in vivo
[28] = Toxicity in Mus musculus ddY (mouse) assessed as mortality at 375 mg/kg, ip after 5 days; type: organism-based; design: dose 375 mg/kg, route intraperitoneal; details: in vivo
[29] = Toxicity in Mus musculus ddY (mouse) assessed as mortality at 275 mg/kg, ip after 6 days; type: organism-based; design: dose 275 mg/kg, route intraperitoneal; details: in vivo
[30] = Toxicity in Mus musculus ddY (mouse) assessed as mortality at 400 mg/kg, ip after 7 days; type: organism-based; design: dose 400 mg/kg, route intraperitoneal; details: in vivo
[31] = Toxicity in Mus musculus ddY (mouse) assessed as mortality at 350 mg/kg, ip after 7 days; type: organism-based; design: dose 350 mg/kg, route intraperitoneal; details: in vivo
[32] = tested on: Brassica rapa subsp. oleifera; experiment: Growth inhibition of Brassica rapa subsp. oleifera assessed as chlorophyll a level at 3 x 10^-4 M after 7 days; type: functional; design: scale not given: the % may be the effect or the level left
[33] = Toxicity in Mus musculus ddY (mouse) assessed as mortality at 300 mg/kg, ip after 7 days; type: organism-based; design: dose 300 mg/kg, route intraperitoneal; details: in vivo
[34] = Toxicity in Mus musculus ddY (mouse) assessed as mortality at 375 mg/kg, ip after 2 days; type: organism-based; design: dose 375 mg/kg, route intraperitoneal; details: in vivo
[35] = Toxicity in Mus musculus ddY (mouse) assessed as mortality at 300 mg/kg, ip after 3 days; type: organism-based; design: dose 300 mg/kg, route intraperitoneal; details: in vivo
[36] = Toxicity in Mus musculus ddY (mouse) assessed as mortality at 325 mg/kg, ip after 3 days; type: organism-based; design: dose 325 mg/kg, route intraperitoneal; details: in vivo
[37] = Toxicity in Mus musculus ddY (mouse) assessed as mortality at 400 mg/kg, ip after 6 days; type: organism-based; design: dose 400 mg/kg, route intraperitoneal; details: in vivo
[38] = Toxicity in Mus musculus ddY (mouse) assessed as mortality at 375 mg/kg, ip after 1 day; type: organism-based; design: dose 375 mg/kg, route intraperitoneal; details: in vivo
[39] = Toxicity in Mus musculus ddY (mouse) assessed as mortality at 350 mg/kg, ip after 2 days; type: organism-based; design: dose 350 mg/kg, route intraperitoneal; details: in vivo
[40] = Toxicity in Mus musculus ddY (mouse) assessed as mortality at 400 mg/kg, ip after 3 days; type: organism-based; design: dose 400 mg/kg, route intraperitoneal; details: in vivo
[41] = Toxicity in Mus musculus ddY (mouse) assessed as mortality at 300 mg/kg, ip after 5 days; type: organism-based; design: dose 300 mg/kg, route intraperitoneal; details: in vivo
[42] = Toxicity in Mus musculus ddY (mouse) assessed as mortality at 325 mg/kg, ip after 7 days; type: organism-based; design: dose 325 mg/kg, route intraperitoneal; details: in vivo
[43] = tested on: Brassica rapa subsp. oleifera; experiment: Growth inhibition of Brassica rapa subsp. oleifera assessed as chlorophyll b level at 1 x 10^-4 M after 7 days; type: functional; design: scale not given: the % may be the effect or the level left
[44] = Toxicity in Mus musculus ddY (mouse) assessed as mortality at 375 mg/kg, ip after 6 days; type: organism-based; design: dose 375 mg/kg, route intraperitoneal; details: in vivo
[45] = Toxicity in Mus musculus ddY (mouse) assessed as mortality at 325 mg/kg, ip after 4 days; type: organism-based; design: dose 325 mg/kg, route intraperitoneal; details: in vivo
[46] = Toxicity in Mus musculus ddY (mouse) assessed as mortality at 275 mg/kg, ip after 3 days; type: organism-based; design: dose 275 mg/kg, route intraperitoneal; details: in vivo
[47] = tested on: Brassica rapa subsp. oleifera; experiment: Growth inhibition of Brassica rapa subsp. oleifera assessed as chlorophyll b level at 3 x 10^-5 M after 7 days; type: functional; design: scale not given: the % may be the effect or the level left
[48] = tested on: Brassica rapa subsp. oleifera; experiment: Growth inhibition of Brassica rapa subsp. oleifera assessed as total chlorophyll level at 1 x 10^-4 M after 7 days; type: functional; design: scale not given: the % may be the effect or the level left
[49] = tested on: Brassica rapa subsp. oleifera; experiment: Growth inhibition of Brassica rapa subsp. oleifera assessed as root growth at 3 x 10^-4 M after 7 days; type: functional
[50] = Toxicity in ip dosed Mus musculus ddY (mouse) assessed as mortality after 1 to 7 days; type: organism-based; details: in vivo
[51] = Toxicity in Mus musculus ddY (mouse) assessed as mortality at 350 mg/kg, ip after 5 days; type: organism-based; design: dose 350 mg/kg, route intraperitoneal; details: in vivo
[52] = tested on: Brassica rapa subsp. oleifera; experiment: Growth inhibition of Brassica rapa subsp. oleifera assessed as chlorophyll b level at 5 x 10^-5 M after 7 days; type: functional; design: scale not given: the % may be the effect or the level left
[53] = tested on: Brassica rapa subsp. oleifera; experiment: Growth inhibition of Brassica rapa subsp. oleifera assessed as root growth at 5 x 10^-5 M after 7 days; type: functional
[54] = Toxicity in Mus musculus ddY (mouse) assessed as mortality at 275 mg/kg, ip after 7 days; type: organism-based; design: dose 275 mg/kg, route intraperitoneal; details: in vivo
[55] = Toxicity in Mus musculus ddY (mouse) assessed as mortality at 275 mg/kg, ip after 1 day; type: organism-based; design: dose 275 mg/kg, route intraperitoneal; details: in vivo
[56] = Toxicity in Mus musculus ddY (mouse) assessed as mortality at 400 mg/kg, ip after 5 days; type: organism-based; design: dose 400 mg/kg, route intraperitoneal; details: in vivo
[57] = Toxicity in Mus musculus ddY (mouse) assessed as mortality at 375 mg/kg, ip after 7 days; type: organism-based; design: dose 375 mg/kg, route intraperitoneal; details: in vivo
[58] = Toxicity in Mus musculus ddY (mouse) assessed as mortality at 350 mg/kg, ip after 6 days; type: organism-based; design: dose 350 mg/kg, route intraperitoneal; details: in vivo
[59] = tested on: Brassica rapa subsp. oleifera; experiment: Growth inhibition of Brassica rapa subsp. oleifera assessed as chlorophyll b level at 3 x 10^-4 M after 7 days; type: functional; design: scale not given: the % may be the effect or the level left

## O=C1CSC(=S)N1 [RHODANINE]
[1]
  mortality at 120 h: 0%
[2]
  mortality at 96 h: 100%
[3]
  mortality at 96 h: 40%
[4]
  Activity: 19.17%
[5]
  Root length: 46 mm
[6]
  Activity: 38.7 mm
[7]
  mortality at 96 h: 80%
[8]
  Activity: 6.76%
[9]
  mortality at 72 h: 100%
[10]
  mortality at 48 h: 40%
[11]
  mortality at 24 h: 40%
[12]
  mortality at 96 h: 0%
[13]
  mortality at 72 h: 80%
[14]
  mortality at 144 h: 80%
[15]
  mortality at 48 h: 0%
[16]
  Activity: 14.1%
[17]
  Activity: 19.19%
[18]
  Activity: 3.52%
[19]
  mortality at 24 h: 0%
[20]
  mortality at 48 h: 80%
[21]
  Activity: 14.1%
[22]
  mortality at 48 h: 100%
[23]
  mortality at 96 h: 100%
[24]
  mortality at 24 h: 80%
[25]
  mortality at 120 h: 80%
[26]
  mortality at 144 h: 40%
[27]
  mortality at 24 h: 20%
[28]
  mortality at 120 h: 100%
[29]
  mortality at 144 h: 0%
[30]
  mortality at 168 h: 100%
[31]
  mortality at 168 h: 80%
[32]
  Activity: 2.09%
[33]
  mortality at 168 h: 40%
[34]
  mortality at 48 h: 100%
[35]
  mortality at 72 h: 40%
[36]
  mortality at 72 h: 80%
[37]
  mortality at 144 h: 100%
[38]
  mortality at 24 h: 80%
[39]
  mortality at 48 h: 80%
[40]
  mortality at 72 h: 100%
[41]
  mortality at 120 h: 40%
[42]
  mortality at 168 h: 80%
[43]
  Activity: 2.41%
[44]
  mortality at 144 h: 100%
[45]
  mortality at 96 h: 80%
[46]
  mortality at 72 h: 0%
[47]
  Activity: 4.8%
[48]
  Activity: 9.16%
[49]
  Activity: 11.3 mm
[50]
  LD50: 311 mg/kg
[51]
  mortality at 120 h: 80%
[52]
  Activity: 5.08%
[53]
  Root length: 42.5 mm
[54]
  mortality at 168 h: 0%
[55]
  mortality at 24 h: 0%
[56]
  mortality at 120 h: 100%
[57]
  mortality at 168 h: 100%
[58]
  mortality at 144 h: 80%
[59]
  Activity: 1.44%
